Source: patent US6737383B1, “Herbicidal oxadiazolidines” (priority 1999, dated 2004)

Key:
smallflower flatsedge = test: Test B flood test smallflower flatsedge; format: in vivo, Cyperus difformis
Outline: (§1)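 Flood test on plants grown to the 2-leaf stage; treated plants kept in greenhouse twelve to sixteen days, then visually rated against controls on a 0 (no effect) to 10 (complete control) scale.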

soybean = test: Test B pre/postemergence soybean; format: in vivo, Glycine max
Outline: (§2)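 Test chemicals in a non-phytotoxic solvent mixture with surfactant were sprayed preemergence onto planted seeds and postemergence onto plants 2 to 18 cm tall (1- to 4-leaf stage). After twelve to sixteen days in a greenhouse, injury was visually rated against untreated controls from 0 (no effect) to 10 (complete control).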

purple nutsedge = test: Test B pre/postemergence purple nutsedge; format: in vivo, Cyperus rotundus
Outline: as §2

bamyardgrass = test: Test B flood test barnyardgrass; format: in vivo, Echinochloa crus-galli
Outline: as §1

blackgrass = test: Test B pre/postemergence blackgrass; format: in vivo, Alopecurus myosuroides
Outline: as §2

wheat = test: Test B pre/postemergence wheat; format: in vivo, Triticum aestivum
Outline: as §2

crabgrass = test: Test B pre/postemergence crabgrass; format: in vivo, Digitaria sanguinalis
Outline: as §2

corn = test: Test B pre/postemergence corn; format: in vivo, Zea mays
Outline: as §2

morningglory = test: Test B pre/postemergence morningglory; format: in vivo, Ipomoea hederacea
Outline: as §2

velvetleaf = test: Test B pre/postemergence velvetleaf; format: in vivo, Abutilon theophrasti
Outline: as §2

wild oat = test: Test B pre/postemergence wild oat; format: in vivo, Avena fatua
Outline: as §2

pigweed = test: Test B pre/postemergence pigweed; format: in vivo, Amaranthus retroflexus
Outline: as §2

rice = test: Test B flood test rice; format: in vivo, Oryza sativa
Outline: as §1

duck salad = test: Test B flood test duck salad; format: in vivo, Heteranthera limosa
Outline: as §1

rape = test: Test B pre/postemergence rape; format: in vivo, Brassica napus
Outline: as §2

bedstraw = test: Test B pre/postemergence bedstraw; format: in vivo, Galium aparine
Outline: as §2

giant foxtail = test: Test B pre/postemergence giant foxtail; format: in vivo, Setaria faberii
Outline: as §2

cocklebur = test: Test B pre/postemergence cocklebur; format: in vivo, Xanthium strumarium
Outline: as §2

surinam grass = test: Test B pre/postemergence surinam grass; format: in vivo, Brachiaria decumbens
Outline: as §2

sugar beet = test: Test B pre/postemergence sugar beet; format: in vivo, Beta vulgaris
Outline: as §2

[1] = Rate 62 g/ha, headed Pre-emergence (flood test species), scale 0 to 10 (0 no effect, 10 complete control)
[2] = Rate 125 g/ha, Pre-emergence, flood test species, scale 0 to 10 where 0 is no effect and 10 is complete control
[3] = Rate 250 g/ha, Pre-emergence, flood-test species, scale 0 to 10, 0 is no effect, 10 is complete control
[4] = Rate 500 g/ha, Pre-emergence, flood test species, scale 0 to 10 (0 no effect, 10 complete control)
[5] = Preemergence, Rate 62 g/ha, scale of 0 to 10 where 0 is no effect and 10 is complete control
[6] = Preemergence, Rate 250 g/ha, scale of 0 to 10 where 0 is no effect and 10 is complete control
[7] = Preemergence, Rate 500 g/ha, scale of 0 to 10 where 0 is no effect and 10 is complete control
[8] = Rate 125 g/ha, Preemergence, scale of 0 to 10 where 0 is no effect and 10 is complete control
[9] = Rate 500 g/ha, Postemergence, scale 0 to 10, 0 no effect, 10 complete control
[10] = Rate 62 g/ha, Postemergence, scale of 0 to 10 where 0 is no effect and 10 is complete control
[11] = Rate 125 g/ha, Postemergence, scale 0 to 10

Cc1noc(C)c1Cn1c(=O)on(C(=O)N(c2ccc(F)cc2)C(C)C)c1=O [Compound 259]
9: Plant response rating, Rape (rape; [7]) | Giant foxtail plant response rating (giant foxtail; [5]) | Giant foxtail plant response rating (giant foxtail; [6]) | Giant foxtail plant response rating (giant foxtail; [8]) | Plant response rating, B. signalgrass (surinam grass; [7])
3: Wheat plant response rating (wheat; [9]) | Corn plant response rating (corn; [6]) | Plant response rating, Corn (corn; [7]) | Cocklebur plant response rating (cocklebur; [9]) | Sugarbeets plant response rating (sugar beet; [9])
5: Plant response rating, Velvetleaf (velvetleaf; [7]) | B. signalgrass plant response rating (surinam grass; [8])
1: Velvetleaf plant response rating (velvetleaf; [9])
7: Plant response rating, Crabgrass (crabgrass; [7]) | Plant response rating (0 to 10; 0 is no effect, 10 is complete control), Morningglory (morningglory; Rate 250 g/ha, Postemergence) | Redroot pigweed plant response rating (pigweed; [9]) | Bedstraw plant response rating (bedstraw; [5])
4: Crabgrass plant response rating (crabgrass; [5]) | Crabgrass plant response rating (crabgrass; [8]) | Velvetleaf plant response rating (velvetleaf; [6]) | Wild oats plant response rating (wild oat; [6]) | Plant response rating, Wild oats (wild oat; [7])
10: Blackgrass plant response rating (blackgrass; [6]) | Plant response rating, Blackgrass (blackgrass; [7]) | Blackgrass plant response rating (blackgrass; [8]) | Bedstraw plant response rating (bedstraw; [6]) | Plant response rating, Bedstraw (bedstraw; [7]) | Bedstraw plant response rating (bedstraw; [8]) | Plant response rating, Giant foxtail (giant foxtail; [7])
0: S. Flatsedge plant response rating (smallflower flatsedge; [1]) | S. Flatsedge plant response rating (smallflower flatsedge; [2]) | S. Flatsedge plant response rating (smallflower flatsedge; [3]) | S. Flatsedge plant response rating (smallflower flatsedge; [4]) | Soybean plant response rating (soybean; [5]) | Soybean plant response rating (soybean; [6]) | Plant response rating, Soybean (soybean; [7]) | Soybean plant response rating (soybean; [8]) | Nutsedge plant response rating (purple nutsedge; [5]) | Nutsedge plant response rating (purple nutsedge; [6]) | Plant response rating, Nutsedge (purple nutsedge; [7]) | Nutsedge plant response rating (purple nutsedge; [8]) | Plant response rating (0 to 10; 0 is no effect, 10 is complete control), Nutsedge (purple nutsedge; Rate 250 g/ha, Postemergence) | Nutsedge plant response rating (purple nutsedge; [9]) | Barnyardgrass plant response rating (bamyardgrass; [1]) | Barnyardgrass plant response rating (bamyardgrass; [2]) | Barnyardgrass plant response rating (bamyardgrass; [3]) | Barnyardgrass plant response rating (bamyardgrass; [4]) | Blackgrass plant response rating (blackgrass; [10]) | Blackgrass plant response rating (blackgrass; [11]) | Plant response rating (0 to 10; 0 is no effect, 10 is complete control), Blackgrass (blackgrass; Rate 250 g/ha, Postemergence) | Blackgrass plant response rating (blackgrass; [9]) | Wheat plant response rating (wheat; [5]) | Wheat plant response rating (wheat; [6]) | Plant response rating, Wheat (wheat; [7]) | Wheat plant response rating (wheat; [8]) | Plant response rating (0 to 10; 0 is no effect, 10 is complete control), Crabgrass (crabgrass; Rate 250 g/ha, Postemergence) | Crabgrass plant response rating (crabgrass; [9]) | Corn plant response rating (corn; [5]) | Corn plant response rating (corn; [10]) | Corn plant response rating (corn; [11]) | Corn plant response rating (corn; [8]) | Plant response rating (0 to 10; 0 is no effect, 10 is complete control), Corn (corn; Rate 250 g/ha, Postemergence) | Corn plant response rating (corn; [9]) | Morningglory plant response rating (morningglory; [5]) | Morningglory plant response rating (morningglory; [6]) | Plant response rating, Morningglory (morningglory; [7]) | Morningglory plant response rating (morningglory; [8]) | Wild oats plant response rating (wild oat; [9]) | Redroot pigweed plant response rating (pigweed; [5]) | Redroot pigweed plant response rating (pigweed; [8]) | Rice plant response rating (rice; [1]) | Rice plant response rating (rice; [2]) | Rice plant response rating (rice; [3]) | Rice plant response rating (rice; [4]) | Ducksalad plant response rating (duck salad; [1]) | Ducksalad plant response rating (duck salad; [2]) | Ducksalad plant response rating (duck salad; [3]) | Ducksalad plant response rating (duck salad; [4]) | Rape plant response rating (rape; [5]) | Rape plant response rating (rape; [8]) | Plant response rating (0 to 10; 0 is no effect, 10 is complete control), Rape (rape; Rate 250 g/ha, Postemergence) | Bedstraw plant response rating (bedstraw; [10]) | Bedstraw plant response rating (bedstraw; [11]) | Plant response rating (0 to 10; 0 is no effect, 10 is complete control), Giant foxtail (giant foxtail; Rate 250 g/ha, Postemergence) | Giant foxtail plant response rating (giant foxtail; [9]) | Cocklebur plant response rating (cocklebur; [5]) | Cocklebur plant response rating (cocklebur; [6]) | Plant response rating, Cocklebur (cocklebur; [7]) | Cocklebur plant response rating (cocklebur; [10]) | Cocklebur plant response rating (cocklebur; [8]) | B. signalgrass plant response rating (surinam grass; [10]) | B. signalgrass plant response rating (surinam grass; Rate 125 g/ha, Postemergence, scale 0 (no effect) to 10 (complete control)) | Plant response rating (0 to 10; 0 is no effect, 10 is complete control), B. signalgrass (surinam grass; Rate 250 g/ha, Postemergence) | B. signalgrass plant response rating (surinam grass; [9]) | Sugarbeets plant response rating (sugar beet; [5]) | Sugarbeets plant response rating (sugar beet; [6]) | Plant response rating, Sugarbeets (sugar beet; [7]) | Sugarbeets plant response rating (sugar beet; [8])
2: Blackgrass plant response rating (blackgrass; [5]) | Velvetleaf plant response rating (velvetleaf; [5]) | Velvetleaf plant response rating (velvetleaf; [8]) | Wild oats plant response rating (wild oat; [5]) | Wild oats plant response rating (wild oat; [8]) | Redroot pigweed plant response rating (pigweed; [6]) | Cocklebur plant response rating (cocklebur; [11]) | Plant response rating (0 to 10; 0 is no effect, 10 is complete control), Cocklebur (cocklebur; Rate 250 g/ha, Postemergence) | B. signalgrass plant response rating (surinam grass; [5])
6: Soybean plant response rating (soybean; [9]) | Plant response rating (0 to 10; 0 is no effect, 10 is complete control), Redroot pigweed (pigweed; Rate 250 g/ha, Postemergence)
8: Morningglory plant response rating (morningglory; [9]) | Plant response rating, Redroot pigweed (pigweed; [7]) | B. signalgrass plant response rating (surinam grass; [6])
